From paper PMC11337205, “Unraveling Interspecies Differences in the Phase I Hepatic Metabolism of Alternariol and Alternariol Monomethyl Ether: Closing Data Gaps for a Comprehensive Risk Assessment” (Chemical Research in Toxicology, 2024)

What was measured:
[1] = Phase I metabolism kinetics (parent toxin loss) in NADPH-fortified rat liver microsomes, LC-MS/MS; type: in vitro ADME, Sprague–Dawley rat; details: for microsomal CLint: Sprague-Dawley, rat, pH 7.4, rat LMs, read-out: CLint (intrinsic clearance)
Experimental: (§1) Pooled human LMs and pooled Sprague–Dawley rat hepatic microsomes, both originating from male donors, were purchased from Sigma-Aldrich (St. Louis, MO, USA) and Gibco, Thermo Fisher Scientific (Waltham, MA, USA), respectively. Porcine LMs were prepared according to an in-house-developed protocol based on the publication of Knights et al.[32] The liver of an approximately four-month-old female “Large White” (or “German Edelschwein”) pig was obtained from a local slaughterhouse. After slaughtering, the liver was placed on ice for about an hour, kept in ice-cold 50 mM tris(hydroxymethyl)aminomethane hydrochloride (Tris–HCl) (pH 7.4) for an additional hour while being transported, and processed immediately.
(§2) The kinetics of the phase I metabolism of AOH and AME was investigated by incubating human, rat (both 1 mg protein/mL), and porcine LMs (2 mg protein/mL) with 1, 10, 20, 50, and 100 μM AOH or 1, 10, 20, and 50 μM AME based on the protocol by Al-Subeihi et al.[34] The incubation solution contained a final concentration of 3 mM NADPH and 1 mM ascorbic acid in 200 mM Tris–HCl (pH 7.4). After preincubation (37 °C, 1 min, mixing at 250–300 rpm), the toxin stock was added in a 1:100 dilution, resulting in a total DMSO content of 1% and the desired toxin concentration. DMSO was selected for this assay because it is the least inhibitory of the solvents studied by Busby et al. on CYP1A1,[35] the primary enzyme involved in the hydroxylation of AOH and AME.[26] The well-established solubility of the test compounds in DMSO and DMSO-containing aqueous buffers facilitated laboratory work and ensured consistency with existing literature, thereby improving the comparability of results across studies, including those of Pfeiffer and colleagues.[25] In a preliminary investigation, incubation times of 5 and 10 min were chosen because they fall within the linear range of the transformation rate–time relationship, thereby ensuring initial rate conditions (Figure S1). When the selected incubation time (0–10 min) passed, one part of the sample was pipetted into two parts of ice-cold extraction solvent (acetonitrile–methanol, 1:1, v/v) for reaction termination. Subsequently, the samples were placed into the freezer (−20 °C) for at least an hour, centrifuged (15 min, 18,000g, 4 °C), and further diluted in methanol–water (3:7, v/v) prior to LC–MS measurements. In the solvent control, the toxin was substituted with DMSO in the incubation solution. Control incubations were performed without the cofactor NADPH or with heat-inactivated microsomes (98 °C, 10 min, mixing at 300 rpm).
(§3) The quantification of selected analytes using external calibration (MS parameters listed in Supporting Information Table S1) was conducted on a high-performance liquid chromatographic system (Dionex UltiMate 3000 UHPLC, Dionex Softron GmbH, Germering, Germany) coupled to a triple quadrupole mass spectrometer (TSQ Vantage, Thermo Fisher Scientific, Waltham, MA, USA), equipped with a heated electrospray ionization (ESI) interface. The applied analytical method is based on Puntscher et al.[28],[36] with slight modifications, which are specified below.
(§4) In brief, the Ascentis Express C18 column (10 cm × 2.1 mm, 2.7 μm, Supelco, Munich, DE), equipped with the Phenomenex SecurityGuard (C18 Cartridges, 4 × 2.0 mm ID, Phenomenex Ltd. Deutschland, Aschaffenburg, Germany), served as the stationary phase. Eluent A was aqueous ammonium acetate (5 mM, pH adjusted to 8.6 with a 25% ammonia solution), and eluent B was methanol. During the first minute, the column was kept at 30% eluent B. Subsequently, the eluent B content was linearly raised to 100% within 6 min. Thereafter, the column was washed with 100% eluent B for 1.5 min. Lastly, the column was re-equilibrated at the initial conditions, reaching an overall run time of 10 min. The autosampler compartment was kept at 10 °C, while the column oven temperature was maintained at 30 °C. […]

[2] = Phase I metabolism kinetics (parent toxin loss) in NADPH-fortified human liver microsomes, LC-MS/MS; type: in vitro ADME; details: for microsomal CLint: human, pH 7.4, human LMs, read-out: CLint (intrinsic clearance)
Experimental: as §1, §2, §3, §4

[3] = Pattern of oxidative metabolites in rat LMs by HR-MS; type: in vitro ADME, Sprague–Dawley rat; details: rat LMs incubated with AME
Experimental: The kinetics of the phase I metabolism of AOH and AME was investigated by incubating human, rat (both 1 mg protein/mL), and porcine LMs (2 mg protein/mL) with 1, 10, 20, 50, and 100 μM AOH or 1, 10, 20, and 50 μM AME based on the protocol by Al-Subeihi et al.[34] The incubation solution contained a final concentration of 3 mM NADPH and 1 mM ascorbic acid in 200 mM Tris–HCl (pH 7.4). After preincubation (37 °C, 1 min, mixing at 250–300 rpm), the toxin stock was added in a 1:100 dilution, resulting in a total DMSO content of 1% and the desired toxin concentration. DMSO was selected for this assay because it is the least inhibitory of the solvents studied by Busby et al. on CYP1A1,[35] the primary enzyme involved in the hydroxylation of AOH and AME.[26] The well-established solubility of the test compounds in DMSO and DMSO-containing aqueous buffers facilitated laboratory work and ensured consistency with existing literature, thereby improving the comparability of results across studies, including those of Pfeiffer and colleagues.[25] […]
Pooled high-resolution MS (HR-MS) samples were analyzed on a Vanquish UHPLC system (Thermo Fisher Scientific, Waltham, MA, USA) connected to a dual-pressure linear trap-quadrupole Orbitrap mass analyzer (Velos ETD, Thermo Fisher Scientific, Waltham, MA, USA). […]

[4] = Pattern of oxidative metabolites in human LMs by HR-MS; type: in vitro ADME; details: human LMs incubated with AME
Experimental: as §2
Pooled high-resolution MS (HR-MS) samples were analyzed on a Vanquish UHPLC system (Thermo Fisher Scientific, Waltham, MA, USA) connected to a dual-pressure linear trap-quadrupole Orbitrap mass analyzer (Velos ETD, Thermo Fisher Scientific, Waltham, MA, USA). The heated ESI interface (source heater temperature: 400 °C) was operated in both positive and negative modes. The mobile and stationary phases were the same as those for the targeted analysis. The column compartment temperature was kept at 40 °C. A multistep gradient was applied at a flow rate of 0.4 mL/min and started with rinsing the column for 1 min at 10% eluent B. Then, the organic content was linearly raised to 100% until the 11th minute. Subsequently, the column was purged with 100% eluent B for two additional minutes. […]

[5] = oral exposure, radiolabeled AOH, male NMRI mice; cited from earlier work
[6] = Caco-2 cell monolayers; cited from earlier work
[7] = male, liver microsomes, Michaelis–Menten model, ratio Vmax/Km
[8] = male, liver microsomes, linear regression, lower concentration range

SMILES: Cc1cc(O)cc2oc(=O)c3c(O)cc(O)cc3c12 [AOH, alternariol]
- microsomal CLint [1, 7]: 35.9 µL/min/mg
- microsomal CLint [1, 8]: 29.9 µL/min/mg
- Km ([1]; male, Sprague–Dawley, liver microsomes, pH 7.4, rat LMs 1 mg protein/mL, NADPH, within 10 min, Michaelis–Menten model, read-out: Km (Michaelis constant)): 78.7 µM
- Concentration decrease ([1]; rat LMs, 1 µM toxin, 5 min): 11%
- Concentration decrease ([1]; rat LMs, 1 µM toxin, 10 min): 19%
- Concentration decrease ([1]; rat LMs, 10 µM toxin, 5 min): 13%
- Concentration decrease ([1]; rat LMs, 10 µM toxin, 10 min): 27%
- Concentration decrease ([1]; rat LMs, 20 µM toxin, 5 min): 14%
- Concentration decrease ([1]; rat LMs, 20 µM toxin, 10 min): 28%
- Concentration decrease ([1]; rat LMs, 50 µM toxin, 5 min): 6%
- Concentration decrease ([1]; rat LMs, 50 µM toxin, 10 min): 9%
- Concentration decrease ([1]; rat LMs, 100 µM toxin, 5 min): 5%
- Concentration decrease ([1]; rat LMs, 100 µM toxin, 10 min): 12%
- Vmax (maximum transformation rate) ([1]; rat LMs, within 10 min, Michaelis–Menten model): 2830 pmol/mg/min
- Concentration decrease ([2]; human LMs, 1 µM toxin, 5 min): 28%
- Concentration decrease ([2]; human LMs, 1 µM toxin, 10 min): 53%
- Concentration decrease ([2]; human LMs, 10 µM toxin, 5 min): 11%
- Concentration decrease ([2]; human LMs, 10 µM toxin, 10 min): 17%
- Concentration decrease ([2]; human LMs, 20 µM toxin, 5 min): 10%
- Concentration decrease ([2]; human LMs, 20 µM toxin, 10 min): 20%
- Concentration decrease ([2]; human LMs, 50 µM toxin, 5 min): 12%
- Concentration decrease ([2]; human LMs, 50 µM toxin, 10 min): 22%
- Concentration decrease ([2]; human LMs, 100 µM toxin, 5 min): 20%
- Concentration decrease ([2]; human LMs, 100 µM toxin, 10 min): 39%
- Vmax (maximum transformation rate) ([2]; human LMs, within 10 min, Michaelis–Menten model): 3370 pmol/mg/min
- microsomal CLint [2, 7]: 25.8 µL/min/mg
- microsomal CLint [2, 8]: 19.9 µL/min/mg
- Km ([2]; male, liver microsomes, pH 7.4, human LMs 1 mg protein/mL, NADPH, within 10 min, Michaelis–Menten model, read-out: Km (Michaelis constant)): 131 µM
- relative abundance among phase I metabolites (in words) [3]: one of the main metabolites
- relative abundance among phase I metabolites (in words) [4]: small amounts
- bioavailability [5]: less than 10%
- intestinal absorption [6]: limited intestinal absorption
